Results from ChEMBL document CHEMBL5131534, “Identification of 2-Pyridinylindole-Based Dual Antagonists of Toll-like Receptors 7 and 8 (TLR7/8)” (ACS Med Chem Lett, 2022).

Columns and labels:
[1] = Cmax in mouse blood at 15 mg/kg, po; type: ADME, organism-based; parameters: dose 15 mg/kg, route po
Toll-like receptor 7 = molecular target: T1, Toll-like receptor 7 (Mus musculus, UniProt P58681); assay: Antagonist activity at gardiquimod stimulated TRL7 in mouse whole blood assessed as inhibition of IL-6 production by ELISA analysis; type: tissue-based
T1 sequence (P58681 whole entry): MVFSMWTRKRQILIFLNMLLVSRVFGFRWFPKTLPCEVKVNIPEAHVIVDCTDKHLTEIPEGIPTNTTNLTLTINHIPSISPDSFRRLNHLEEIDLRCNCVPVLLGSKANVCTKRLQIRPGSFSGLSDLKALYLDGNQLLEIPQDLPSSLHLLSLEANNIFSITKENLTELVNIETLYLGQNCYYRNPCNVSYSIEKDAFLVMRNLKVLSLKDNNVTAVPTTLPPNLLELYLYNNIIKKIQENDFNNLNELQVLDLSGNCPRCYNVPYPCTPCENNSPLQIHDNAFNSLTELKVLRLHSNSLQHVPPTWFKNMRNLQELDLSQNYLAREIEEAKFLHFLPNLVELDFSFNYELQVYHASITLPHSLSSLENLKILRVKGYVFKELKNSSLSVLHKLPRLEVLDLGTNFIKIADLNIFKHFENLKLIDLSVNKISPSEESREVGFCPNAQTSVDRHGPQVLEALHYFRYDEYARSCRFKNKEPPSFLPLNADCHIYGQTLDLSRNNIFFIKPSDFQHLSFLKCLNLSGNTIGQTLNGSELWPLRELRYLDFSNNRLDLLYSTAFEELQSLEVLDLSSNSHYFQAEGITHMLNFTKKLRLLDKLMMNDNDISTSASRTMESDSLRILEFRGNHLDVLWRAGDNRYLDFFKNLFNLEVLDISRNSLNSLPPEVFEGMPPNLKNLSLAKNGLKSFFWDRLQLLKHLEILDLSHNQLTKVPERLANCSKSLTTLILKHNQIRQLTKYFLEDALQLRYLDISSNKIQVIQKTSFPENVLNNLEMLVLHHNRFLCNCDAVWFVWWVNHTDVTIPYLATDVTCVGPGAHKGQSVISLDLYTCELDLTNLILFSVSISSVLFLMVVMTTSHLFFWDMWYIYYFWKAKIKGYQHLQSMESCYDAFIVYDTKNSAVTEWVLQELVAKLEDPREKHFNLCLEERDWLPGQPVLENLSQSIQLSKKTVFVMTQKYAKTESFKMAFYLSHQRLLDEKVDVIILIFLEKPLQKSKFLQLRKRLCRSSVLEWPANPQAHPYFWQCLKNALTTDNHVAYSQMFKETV

[2] = Toxicity in MRL/Ipr Systemic lupus erythematosus mouse model assessed as relative spleen weight at 0.1 mg/kg, po administered for 8 weeks and measured 24 hrs post final relative to control; type: organism-based; settings: in vivo, 1368 h
[3] = AUClast in mouse blood at 15 mg/kg, po; type: ADME, organism-based; parameters: time 0 - last, dose 15 mg/kg, route po
Mus musculus = assay: Anti-inflammatory activity against MRL/Ipr Systemic lupus erythematosus mouse model assessed as inhibition of anti-Sm/RNP Ab titer at 20 mg/kg, po administered for 8 weeks and measured 24 hrs post final dose relative to control; type: functional; parameters: scale not given: the % may be the effect or the level left; settings: time 1368 hrs

Cmax [1]: 255 nM
IC50 (Toll-like receptor 7): 0.3 nM
AUC(0-t) [3]: 2.77 µM·h
Compound: Cc1cc(-c2[nH]c3ccc(C4CCNCC4)cc3c2C(C)C)cc(C)n1
Activity [2]: 28%
Activity (Mus musculus): 82%
